Source: paper PMC12693701, “Glucosinolate-Derived Metabolites from Barbarea vulgaris (Brassicaceae): Evaluation of Antimicrobial, Antioxidant, and Anti-Inflammatory Potentials” (Molecules, 2025)

Experiments:
B. subtilis ATCC 6633 = experiment: Inhibition of biofilm formation (crystal violet); format: cell-based, Bacillus subtilis; details: for BIC50: biofilm coverage reduced by 50%; for BIC90: biofilm coverage reduced by 90%
Description: (§1) The procedure involved preparing 96-well microtiter plates (Sarstedt, Nümbrecht, Germany) by adding 100 μL of Mueller-Hinton nutrient broth to each well. A 10 μL aliquot of bacterial suspension (adjusted to 1.0 McFarland for Gram-positive bacteria and 0.5 McFarland for Gram-negative bacteria) was added to the wells. The plates were then incubated at 37 °C for 48 h to allow biofilm formation. After incubation, the wells were washed twice with 200 μL of sterile 0.85% saline to remove non-adherent and weakly adherent cells. Biofilms formed by the adherent bacteria were fixed with 100 μL of methanol until fully evaporated. The biofilms were then stained using 0.1% (w/v) crystal violet (Fluka Chemie AG, Buchs, Switzerland) and left at room temperature for 20 min. After staining, excess dye was washed off with deionized water, followed by 96% ethanol. Controls included wells containing only nutrient broth to check for sterility and nonspecific binding. Background absorbance from the sterile medium, fixative, and dye was subtracted from the OD readings of the test samples. All experiments were performed in triplicate.
(§2) To assess the inhibition of biofilm formation, 96-well microtiter plates (Sarstedt, Nümbrecht, Germany) were prepared by dispensing 100 μL of Mueller-Hinton broth into each well. From stock solutions of tested compounds (at 10 mg/mL), 100 μL was added to the first row of the plate, followed by twofold serial dilutions (from 5 to 0.039 mg/mL) using a multichannel pipette (Eppendorf AG, Hamburg, Germany). Subsequently, 10 μL of fresh bacterial suspension (adjusted to 0.5 McFarland for Gram-negative and 1.0 McFarland for Gram-positive bacteria) was added to each well. The plates were incubated at 37 °C for 48 h. After incubation, the contents of the wells were carefully removed by tapping, and the remainder of the experiment was conducted following the procedure described above.
(§3) Controls consisted of wells containing only broth or broth with the tested compounds to assess sterility and nonspecific binding. Background absorbance was subtracted from test readings as described earlier. All experiments were performed in triplicate, and tetracycline (Sigma-Aldrich, St. Louis, MO, USA), dissolved in nutrient broth, was used as a reference compound.

S. aureus ATCC 25923 = experiment: Inhibition of biofilm formation (crystal violet); format: cell-based, Staphylococcus aureus; details: for BIC50: biofilm coverage reduced by 50%; for BIC90: biofilm coverage reduced by 90%
Description: as §1, §2, §3

K. pneumoniae = experiment: Inhibition of biofilm formation (crystal violet); format: cell-based, Klebsiella pneumoniae; details: for BIC50: biofilm coverage reduced by 50%; for BIC90: biofilm coverage reduced by 90%
Description: as §1, §2, §3

S. enterica = experiment: Inhibition of biofilm formation (crystal violet); format: cell-based, Salmonella enterica; details: for BIC50: biofilm coverage reduced by 50%; for BIC90: biofilm coverage reduced by 90%
Description: as §1, §2, §3

COX-2 = molecular target: T1, COX-2 (Homo sapiens, UniProt P35354); experiment: COX-2 Inhibitor Screening Kit (Fluorometric); format: biochemical; details: for inhibition at 10 µM / inhibition at 100 µM: mean ± SE, read-out: Percentage of COX-2 Inhibition
T1 construct: purchased Abcam limited, Cambridge, UK
T1 sequence (P35354 18-604): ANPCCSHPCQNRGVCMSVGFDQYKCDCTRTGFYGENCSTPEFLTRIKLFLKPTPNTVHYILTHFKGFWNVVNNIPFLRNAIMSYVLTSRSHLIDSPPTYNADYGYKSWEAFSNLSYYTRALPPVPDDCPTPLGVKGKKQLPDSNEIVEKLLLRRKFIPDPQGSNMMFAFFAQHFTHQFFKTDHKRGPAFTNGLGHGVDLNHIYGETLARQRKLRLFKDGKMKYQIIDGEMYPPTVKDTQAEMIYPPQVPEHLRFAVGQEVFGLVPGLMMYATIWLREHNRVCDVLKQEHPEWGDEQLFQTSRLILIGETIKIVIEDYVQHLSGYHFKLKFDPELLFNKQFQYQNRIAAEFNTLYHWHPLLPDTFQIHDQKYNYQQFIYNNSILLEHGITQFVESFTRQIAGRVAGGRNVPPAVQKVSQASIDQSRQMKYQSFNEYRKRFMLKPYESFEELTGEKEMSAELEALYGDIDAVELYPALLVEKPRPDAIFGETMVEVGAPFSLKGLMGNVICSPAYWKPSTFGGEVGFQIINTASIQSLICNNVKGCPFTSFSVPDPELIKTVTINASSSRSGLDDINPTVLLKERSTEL
Description: The COX-2 Inhibitor Screening Kit (Fluorometric) (Abcam limited, Cambridge, UK) is a sensitive assay for screening COX-2 inhibitors by fluorometrically detecting Prostaglandin G2, an intermediate formed by COX enzymatic activity The COX-2 inhibitory activity was evaluated following the manufacturer’s instructions. Tested compounds were prepared as 5 mM DMSO stock solutions, diluted 5-fold with assay buffer, and 10 µL was used per well. Controls included celecoxib (inhibitor control), DMSO (solvent control) and enzyme control. A reaction mix containing COX-2 enzyme, probe, cofactor, and assay buffer was added (80 µL), followed by 10 µL arachidonic acid/NaOH to start the reaction. Fluorescence (Ex/Em = 535/587 nm) was monitored kinetically at 25 °C. All measurements were performed in triplicate.

In the case of S=C1NCC(c2ccccc2)O1 (racemic) [Compound 4, rac-5-Phenyl-1,3-oxazolidine-2-thione], the BIC50 (B. subtilis ATCC 6633) is reported as 2700 µg/mL, the BIC90 (B. subtilis ATCC 6633) is reported as >5000 µg/mL and the BIC50 (S. aureus ATCC 25923) is reported as 1500 µg/mL. The BIC90 (S. aureus ATCC 25923) was >5000 µg/mL, the BIC50 (K. pneumoniae) was 3978 µg/mL and the BIC90 (K. pneumoniae) was >5000 µg/mL. For the same molecule, the BIC50 (S. enterica) was 1000 µg/mL, the BIC90 (S. enterica) was 4470 µg/mL and the IC50 (COX-2) was > 100 µM. It also gave an inhibition at 10 µM (COX-2) of 4.5 ± 1.6% and an inhibition at 100 µM (COX-2) of 14.2 ± 1%.
With Oc1ccc(CCN=C=S)cc1 [Compound 8, 2-(4-hydroxyphenyl)ethyl isothiocyanate] the BIC50 (B. subtilis ATCC 6633) was 1100 µg/mL, the BIC90 (B. subtilis ATCC 6633) was 2300 µg/mL and the BIC50 (S. aureus ATCC 25923) was 868 µg/mL. For the same molecule, the BIC90 (S. aureus ATCC 25923) was 1360 µg/mL, the BIC50 (K. pneumoniae) was 570 µg/mL and the BIC90 (K. pneumoniae) was 2000 µg/mL. The BIC50 (S. enterica) was 1547 µg/mL and the BIC90 (S. enterica) was >5000 µg/mL.
S=C1NC[C@H](c2ccccc2)O1 [Compound 5, (S)-5-phenyl-1,3-oxazolidine-2-thione] was tested, and the IC50 (COX-2) was > 100 µM, the inhibition at 10 µM (COX-2) was 8.11 ± 1% and the inhibition at 100 µM (COX-2) was 21.2 ± 1.3%.
With O=C1NCC(c2ccccc2)O1 (stereo not shown) [Compound 7, 5-Phenyl-1,3-oxazolidin-2-one] the BIC50 (B. subtilis ATCC 6633) was >5000 µg/mL, the BIC90 (B. subtilis ATCC 6633) was >5000 µg/mL and the BIC50 (S. aureus ATCC 25923) was >5000 µg/mL. For the same molecule, the BIC90 (S. aureus ATCC 25923) was >5000 µg/mL, the BIC50 (K. pneumoniae) was 4400 µg/mL and the BIC90 (K. pneumoniae) was >5000 µg/mL. For the same molecule, the BIC50 (S. enterica) was 1254 µg/mL and the BIC90 (S. enterica) was >5000 µg/mL.
CSC(=S)NCCc1ccc(O)cc1 [Compound 2, methyl-4-hydroxyphenylethyl dithiocarbamate] gave a BIC50 (B. subtilis ATCC 6633) of 290 µg/mL, a BIC90 (B. subtilis ATCC 6633) of 1250 µg/mL and a BIC50 (S. aureus ATCC 25923) of 220 µg/mL. The BIC90 (S. aureus ATCC 25923) was 2120 µg/mL, the BIC50 (K. pneumoniae) was 580 µg/mL and the BIC90 (K. pneumoniae) was 3600 µg/mL. For the same molecule, the BIC50 (S. enterica) was 1100 µg/mL and the BIC90 (S. enterica) was 3200 µg/mL.
O=C(O)C1CSC(=S)N1 (stereo not shown) [Compound 3, 2-Thioxothiazolidine-4-carboxylic Acid] gave a BIC50 (B. subtilis ATCC 6633) of 1190 µg/mL, a BIC90 (B. subtilis ATCC 6633) of 2500 µg/mL and a BIC50 (S. aureus ATCC 25923) of 2500 µg/mL. The BIC90 (S. aureus ATCC 25923) was >5000 µg/mL, the BIC50 (K. pneumoniae) was 1262 µg/mL and the BIC90 (K. pneumoniae) was >5000 µg/mL. The BIC50 (S. enterica) was 2400 µg/mL and the BIC90 (S. enterica) was >5000 µg/mL.
